Measured values: patent US6551998B1, “Antimicrobial agents” (University of Louisville Research Foundation, Inc., priority 1999, dated 2003)
≈ marks a conversion by molar mass, not a printed value. Read-outs that look alike come from different tables or passages of the source. Square brackets hold non-standard residues; d marks the D form. Ends that are not written are not given here. 2Nal = N[C@@H](Cc1ccc2ccccc2c1)C(=O)O

Tests used:
[1] = tested on: Methicillin resistant Staphylococcus aureus (ATCC 33591); type: cell-based; details: for MRSA IC50: Table 4; for IC50 / MIC: ATCC 33591; for activity against MRSA (in words): gram-positive organism; for selectivity between MRSA and P. aeruginosa (in words): comparison of the MRSA and Ps A. IC50 of Table 4
Experimental: (§1) The antimicrobial compounds of the present invention were assayed using a standard microdilution assay against gram-positive bacteria Staphylococcus aureus (strain used: ATTC 29213) and methicillin-resistant strain used ATCC 33591) and the gram-negative bacteria Pseudomonas aeruginosa (strain used ATCC27853). The samples were assayed against 1-5×10^5 colony forming units, in Mueller-Hinton broth, at 37° C. The activity was determined following a 21 hour incubation. The IC50 values were calculated using sigmoidal curve fitting software. (Graphpad™, ISI Software, San Diego, Calif.) and correspond to the sample concentration which inhibits 50 percent of bacterial growth. The minimum inhibitory concenttration (MIC) is defined as the lowest concentration of sample at which no growth is detected by optical density between

[2] = tested on: Pseudomonas aeruginosa (ATCC27853); type: cell-based; details: for Ps A. IC50: Table 4; for activity against Pseudomonas aeruginosa (in words): gram negative organism
Experimental: as §1

Fusarium oxysporum = details: cited from earlier work
Fusarium moniliforme = details: cited from earlier work
[3] = Table 2, Mueller-Hinton broth, 37° C., 21 hour incubation, 50 percent inhibition of bacterial growth
[4] = Table 2, lowest concentration at which no growth is detected, 21 hour incubation

Row | Compound | MRSA IC50 [1] [µg/mL] | Ps A. IC50 [2] [µg/mL] | IC50 [1] [µg/mL] | MIC [1] [µg/mL] | further results
1 | 4-AMBψ[CH2NH]Lys-Ser-4-AMBψ[CH2NH]Leu-OH [Compound 38] | > 500 | > 500 | – | – | –
2 | 4-AMBψ[CH2NH]Lys-Ser-Pheψ[CH2NH]Leu-OH [Compound 37] | > 500 | 415 | – | – | –
3 | CC(C)C[C@H](NC[C@H](Cc1ccccc1)NC(=O)[C@H](CO)NC(=O)[C@H](CCCCN)NC[C@@H](N)Cc1ccc2ccccc2c1)C(=O)O [Compound 1, H-2-Nal ψ[CH2NH]Lys-Ser-Pheψ[CH2NH]Leu-OH] | – | – | 3 (≈ 4.53 µM) | 8 to 16 | activity against MRSA (in words) [1]: most active; IC50 [2, 3]: 10 µg/mL (≈ 15.1 µM); MIC [2, 4]: 16 to 32 µg/mL
4 | CC(C)C[C@H](NC[C@H](Cc1ccccc1)NC(=O)[C@@H](NC(=O)[C@H](CCCCN)NC[C@@H](N)Cc1ccc2ccccc2c1)C(C)C)C(=O)O [Compound 2, H-2-Nalψ[CH2NH]Lys-Val-Pheψ[CH2NH]Leu-OH] | – | – | 69 (≈ 102 µM) | 125 to 250 | IC50 ([2]; ATCC27853, 21 h): 58 µg/mL (≈ 85.9 µM); MIC ([2]; ATCC27853, 21 h): 80 to 152 µg/mL
5 | CC(C)C[C@H](NC[C@H](Cc1ccccc1)NC(=O)[C@H](Cc1ccccc1)NC(=O)[C@H](CCCCN)NC[C@@H](N)Cc1ccc2ccccc2c1)C(=O)O [Compound 3, H-2-Nalψ[CH2NH]Lys-Phe-Pheψ[CH2NH]Leu-OH] | – | – | 19 (≈ 26.3 µM) | 125 to 150 | IC50 ([2]; ATCC27853, 21 h): 31 µg/mL (≈ 42.9 µM); MIC ([2]; ATCC27853, 21 h): 40 to 62 µg/mL
6 | CSCC[C@H](NC[C@@H](N)Cc1ccc2ccccc2c1)C(=O)N[C@@H](Cc1ccccc1)C(=O)N[C@H](CN[C@@H](CC(C)C)C(=O)O)Cc1ccccc1 [Compound 6, H-2-Nalψ[CH2NH]Met-Phe-Pheψ[CH2NH]Leu-OH] | – | – | 44 (≈ 60.6 µM) | 125 to 250 | –
7 | CC[C@H](C)[C@H](NC[C@@H](N)Cc1ccc2ccccc2c1)C(=O)N[C@@H](CO)C(=O)N[C@H](CN[C@@H](CC(C)C)C(=O)O)Cc1ccccc1 [Compound 7, H-2-Nalψ[CH2NH]Ile-Ser-Pheψ[CH2NH]Leu-OH] | – | – | 69 (≈ 107 µM) | 125 to 250 | –
8 | CC[C@H](C)[C@H](NC[C@@H](N)Cc1ccc2ccccc2c1)C(=O)N[C@H](C(=O)N[C@H](CN[C@@H](CC(C)C)C(=O)O)Cc1ccccc1)C(C)C [Compound 8, H-2-Nalψ[CH2NH]Ile-Val-Pheψ[CH2NH]Leu-OH] | – | – | 5 (≈ 7.58 µM) | 8 to 16 | –
9 | CC[C@H](C)[C@H](NC[C@@H](N)Cc1ccc2ccccc2c1)C(=O)N[C@@H](Cc1ccccc1)C(=O)N[C@H](CN[C@@H](CC(C)C)C(=O)O)Cc1ccccc1 [Compound 9, H-Nalψ[CH2NH]Ile-Phe-Pheψ[CH2NH]Leu-OH] | – | – | 9 (≈ 12.7 µM) | 16 to 32 | –
10 | CC(C)C[C@H](NC[C@H](Cc1ccccc1)NC(=O)[C@H](Cc1ccccc1)NC(=O)C(C)(C)NC[C@@H](N)Cc1ccc2ccccc2c1)C(=O)O [Compound 12, H-2-Nalψ[CH2NH]Aib-Phe-Pheψ[CH2NH]Leu-OH] | – | – | 26 (≈ 38.2 µM) | 125 to 250 | –
11 | CC(C)C[C@H](NC[C@H](Cc1ccccc1)NC(=O)C(C)(C)NC(=O)[C@H](CCCCN)NC[C@@H](N)Cc1ccc2ccccc2c1)C(=O)O [Compound 13, H-2-Nalψ[CH2NH]Lys-Aib-Pheψ[CH2NH]Leu-OH] | – | – | 54 (≈ 81.7 µM) | 125 to 250 | IC50 ([2]; ATCC27853, 21 h): 59 µg/mL (≈ 89.3 µM); MIC ([2]; ATCC27853, 21 h): 80 to 125 µg/mL; activity against Pseudomonas aeruginosa (in words) [2]: good potency
12 | CSCCC(NCC(N)Cc1ccc2ccccc2c1)C(=O)NC(C)(C)C(=O)NC(CNC(CC(C)C)C(=O)O)Cc1ccccc1 (stereo not drawn) [Compound 14, H-2-Nalψ[CH2NH]Met-Aib-Pheψ[CH2NH]Leu-OH] | – | – | 3 (≈ 4.52 µM) | 8 to 16 | activity against MRSA (in words) [1]: also active; IC50 ([2]; ATCC27853, 21 h): 20 µg/mL (≈ 30.1 µM); MIC ([2]; ATCC27853, 21 h): 31 to 62 µg/mL; activity against Pseudomonas aeruginosa (in words) [2]: good potency
13 | CC[C@H](C)[C@H](NC[C@@H](N)Cc1ccc2ccccc2c1)C(=O)NC(C)(C)C(=O)N[C@H](CN[C@@H](CC(C)C)C(=O)O)Cc1ccccc1 [Compound 15, H-2-Nalψ[CH2NH]Ile-Aib-Pheψ[CH2NH]Leu-OH] | – | – | 39 (≈ 60.4 µM) | 80 to 125 | –
14 | CCC(CC)(NC[C@@H](N)Cc1ccc2ccccc2c1)C(=O)N[C@@H](CO)C(=O)N[C@H](CN[C@@H](CC(C)C)C(=O)O)Cc1ccccc1 [Compound 16, H-2-Nalψ[CH2NH]Deg-Ser-Pheψ[CH2NH]Leu-OH] | – | – | 17 (≈ 26.2 µM) | 62 to 125 | IC50 [2, 3]: 170 µg/mL (≈ 262 µM); MIC [2, 4]: > 250 µg/mL
15 | CCC(CC)(NC[C@@H](N)Cc1ccc2ccccc2c1)C(=O)N[C@@H](Cc1ccccc1)C(=O)N[C@H](CN[C@@H](CC(C)C)C(=O)O)Cc1ccccc1 [Compound 18, H-2-Nalψ[CH2NH]Deg-Phe-Pheψ[CH2NH]Leu-OH] | – | – | 6 (≈ 8.48 µM) | 16 to 32 | –
16 | CCC(CC)(NC(=O)[C@H](CCCCN)NC[C@@H](N)Cc1ccc2ccccc2c1)C(=O)N[C@H](CN[C@@H](CC(C)C)C(=O)O)Cc1ccccc1 [Compound 19, H-2-Nalψ[CH2NH]Lys-Deg-Pheψ[CH2NH]Leu-OH] | – | – | 67 (≈ 97.2 µM) | 125 to 250 | IC50 ([2]; ATCC27853, 21 h): 143 µg/mL (≈ 208 µM); MIC ([2]; ATCC27853, 21 h): 250 to 500 µg/mL
17 | CCC(CC)(NC(=O)[C@H](CCSC)NC[C@@H](N)Cc1ccc2ccccc2c1)C(=O)N[C@H](CN[C@@H](CC(C)C)C(=O)O)Cc1ccccc1 [Compound 20, H-Nalψ[CH2NH]Met-Deg-Pheψ[CH2NH]Leu-OH] | – | – | 5 (≈ 7.23 µM) | 16 to 32 | IC50 ([2]; ATCC27853, 21 h): 64 µg/mL (≈ 92.5 µM); MIC ([2]; ATCC27853, 21 h): 80 to 125 µg/mL; activity against Pseudomonas aeruginosa (in words) [2]: good potency

Row | Compound | MRSA IC50 [1] [µg/mL] | Ps A. IC50 [2] [µg/mL] | IC50 [1] [µg/mL] | MIC [1] [µg/mL] | further results
18 | CC[C@H](C)[C@H](NC[C@@H](N)Cc1ccc2ccccc2c1)C(=O)NC(CC)(CC)C(=O)N[C@H](CN[C@@H](CC(C)C)C(=O)O)Cc1ccccc1 [Compound 21, H-2-Nalψ[CH2NH]Ile-Deg-Pheψ[CH2NH]Leu-OH] | – | – | 34 (≈ 50.4 µM) | 40 to 162 | –
19 | Ac-2-Nalψ[CH2NH]Lys-Ser-Pheψ[CH2NH]Leu-OH [Compound 24] | 60 | 180 | – | – | –
20 | Cecropin A: Cecropins are cationic linear peptides isolated from the hemolymph of the giant silk moth; insect-derived antimicrobial peptide (KWKLFKKIEKVGQNIRDGIIKAGPAVAVVGQATQIAK; ends and bridges not checked; UniProt P01507 27-63, looked up) | – | – | – | – | concentration giving total killing (Fusarium oxysporum): 12.4 µg/mL; concentration giving total killing (Fusarium moniliforme): 12.4 µg/mL
21 | H-2-Nal-Lys-Ser-Phe-Leu-OH (H-[2Nal]KSFL-OH; SMILES CC(C)C[C@H](NC(=O)[C@H](Cc1ccccc1)NC(=O)[C@H](CO)NC(=O)[C@H](CCCCN)NC(=O)[C@@H](N)Cc1ccc2ccccc2c1)C(=O)O) [Compound 26] | 184 | 388 | – | – | activity against MRSA (in words) [1]: modest activity in both assays; activity against Pseudomonas aeruginosa (in words) [2]: modest activity in both assays
22 | H-2-Nalψ[CH2NAc]Lys-Ser-Pheψ[CH2NH]Leu-OH [Compound 23] | 19.6 | 33.5 | – | – | activity against MRSA (in words) [1]: active against both; activity against Pseudomonas aeruginosa (in words) [2]: active against both
23 | H-2-Nalψ[CH2NAc]Met-Aib-Pheψ[CH2NH]Leu-OH [Compound 25] | 28.7 | > 500 | – | – | selectivity between MRSA and P. aeruginosa (in words) [1]: very selective; activity against MRSA (in words) [1]: quite active
24 | H-2-Nalψ[CH2NH]Lys(Ac)-Ser-Pheψ[CH2NH]Leu-OH [Compound 28] | 25.8 | 190 | – | – | –
25 | H-2-Nalψ[CH2NH]Lys-Ser-4-AMBψ[CH2NH]Leu-OH [Compound 36] | 37.5 | 32.2 | – | – | –
26 | H-2-Nalψ[CH2NH]Lys-Ser-Phe-Leu-OH (H-[2Nal]KSFL-OH; also: ψ[CH2NH] reduced bond between 2-Nal1 and Lys2) [Compound 27] | 37.8 | 65.4 | – | – | –
27 | H-2-Nalψ[CH2NH]Lys-Ser-Pheψ[CH2NAc]Leu-OH [Compound 30] | 26 | 50 | – | – | –
28 | H-2-Nalψ[CH2NH]Met-3-AMB-Pheψ[CH2NH]Leu-OH [Compound 34] | 47 | 230 | – | – | –
29 | H-2-Nalψ[CH2NH]Met-4-AMB-Pheψ[CH2NH]Leu-OH [Compound 33] | 17.6 | 163 | – | – | selectivity between MRSA and P. aeruginosa (in words) [1]: quite selective toward MRSA
30 | H-2-Nalψ[CH2NH]Met-Aib-Pheψ[CH2NH]Leu-NH2 [Compound 31] | 10.4 | 94 | – | – | –
31 | H-2-Nalψ[CH2NH]Nle-Aib-Pheψ[CH2NH]Leu-OH [Compound 32] | 35 | > 500 | – | – | –
32 | H-D-2-Nalψ[CH2NH]D-Lys-D-Ser-D-Pheψ[CH2NH]D-Leu-OH [Compound 29] | 18.8 | 13.9 | – | – | selectivity between MRSA and P. aeruginosa (in words) [1]: slight selectivity for the gram-negative organisms
33 | H-D-2-Nalψ[CH2NH]D-Met-Aib-D-Pheψ[CH2NH]D-Leu-OH [Compound 35] | 42.1 | 463 | – | – | –
34 | H-D-2-Nalψ[CH2NH]Lys-Ser-Pheψ[CH2NH]Leu-OH [Compound 22] | 10.9 | 9.2 | – | – | activity against MRSA (in words) [1]: active against both; activity against Pseudomonas aeruginosa (in words) [2]: active against both
